Test: Safety: treatment-emergent adverse events (CTCAE v4.0), phase 1 trial
Format: in vivo, human
Experimental: Safety was assessed on the basis of AEs, physical examination, vital signs, electrocardiograms, multiple-gated acquisition scans, and clinical laboratory test assessments. AEs were graded using National Cancer Institute CTCAE version 4.0.
Descriptive statistics were used for demographic variables. The numbers and percentages of patients with treatment-emergent AEs (TEAEs) were tabulated using the Medical Dictionary for Regulatory Activities version 16.0 system organ class and preferred term, and further classified according to CTCAE version 4.0 criteria. The safety data set included all patients who received one or more doses of ilorasertib. The pharmacokinetic data set included all patients who received one or more doses of ilorasertib and had one or more pharmacokinetic samples. Values for pharmacokinetic parameters were determined using non-compartmental methods, with data analysed separately for each arm. A repeated measures analysis was performed for Tmax and dose-normalised Cmax, AUCt, and AUC∞. The model included random effects for patient and fixed effects for dose level, day, and the interaction of dose level and day. To assess effects of exposure on pharmacodynamic biomarkers, Cmax was employed as the directly measured marker of exposure for the rapid changes in DBP and PlGF pre-steady-state, while AUC∞ reflected exposure variability at the time of post-multiple-dose skin biopsy. Descriptive statistics were used to summarise ECOG performance status. The efficacy data set included all patients who received one or more doses of ilorasertib.

Compound: Nc1ncc(-c2cnn(CCO)c2)c2scc(-c3ccc(NC(=O)Nc4cccc(F)c4)cc3)c12 [ilorasertib, Ilorasertib]
- Any grade AE, patients n (%) (Arm I PO QD, N = 23): 22 (96)
- Constipation, any grade TEAE, patients n (%) (Arm I PO QD, N = 23): 6 (26)
- Decreased appetite, any grade TEAE, patients n (%) (Arm I PO QD, N = 23): 8 (35)
- Diarrhoea, any grade TEAE, patients n (%) (Arm I PO QD, N = 23): 5 (22)
- Diarrhoea, grade 3 or 4 TEAE, patients n (%) (Arm I PO QD, N = 23): 1 (4)
- Dyspnoea, any grade TEAE, patients n (%) (Arm I PO QD, N = 23): 2 (9)
- Fatigue, any grade TEAE, patients n (%) (Arm I PO QD, N = 23): 13 (57)
- Grade 3 or 4 AE, patients n (%) (Arm I PO QD, N = 23): 14 (61)
- Headache, any grade TEAE, patients n (%) (Arm I PO QD, N = 23): 5 (22)
- Hypertension, any grade TEAE, patients n (%) (Arm I PO QD, N = 23): 8 (35)
- Hypertension, grade 3 or 4 TEAE, patients n (%) (Arm I PO QD, N = 23): 4 (17)
- Hypokalaemia, any grade TEAE, patients n (%) (Arm I PO QD, N = 23): 3 (13)
- Hypomagnesaemia, any grade TEAE, patients n (%) (Arm I PO QD, N = 23): 3 (13)
- Nausea, any grade TEAE, patients n (%) (Arm I PO QD, N = 23): 8 (35)
- Neutropenia, grade 3 or 4 TEAE, patients n (%) (Arm I PO QD, N = 23): 0
- Thrombocytopenia, any grade TEAE, patients n (%) (Arm I PO QD, N = 23): 3 (13)
- Urinary tract infection, any grade TEAE, patients n (%) (Arm I PO QD, N = 23): 2 (9)
- Vomiting, any grade TEAE, patients n (%) (Arm I PO QD, N = 23): 3 (13)
- Any grade AE, patients n (%) (Arm II PO BID, N = 28): 27 (96)
- Constipation, any grade TEAE, patients n (%) (Arm II PO BID, N = 28): 5 (18)
- Decreased appetite, any grade TEAE, patients n (%) (Arm II PO BID, N = 28): 9 (32)
- Diarrhoea, any grade TEAE, patients n (%) (Arm II PO BID, N = 28): 8 (29)
- Diarrhoea, grade 3 or 4 TEAE, patients n (%) (Arm II PO BID, N = 28): 1 (4)
- Dyspnoea, any grade TEAE, patients n (%) (Arm II PO BID, N = 28): 3 (11)
- Fatigue, any grade TEAE, patients n (%) (Arm II PO BID, N = 28): 14 (50)
- Grade 3 or 4 AE, patients n (%) (Arm II PO BID, N = 28): 15 (54)
- Headache, any grade TEAE, patients n (%) (Arm II PO BID, N = 28): 4 (14)
- Hypertension, any grade TEAE, patients n (%) (Arm II PO BID, N = 28): 9 (32)
- Hypertension, grade 3 or 4 TEAE, patients n (%) (Arm II PO BID, N = 28): 4 (14)
- Hypokalaemia, any grade TEAE, patients n (%) (Arm II PO BID, N = 28): 3 (11)
- Hypomagnesaemia, any grade TEAE, patients n (%) (Arm II PO BID, N = 28): 3 (11)
- Nausea, any grade TEAE, patients n (%) (Arm II PO BID, N = 28): 5 (18)
- Neutropenia, grade 3 or 4 TEAE, patients n (%) (Arm II PO BID, N = 28): 2 (7)
- Thrombocytopenia, any grade TEAE, patients n (%) (Arm II PO BID, N = 28): 5 (18)
- Urinary tract infection, any grade TEAE, patients n (%) (Arm II PO BID, N = 28): 5 (18)
- Vomiting, any grade TEAE, patients n (%) (Arm II PO BID, N = 28): 8 (29)
- Any grade AE, patients n (%) (Arm III i.v., N = 7): 7 (100)
- Constipation, any grade TEAE, patients n (%) (Arm III i.v., N = 7): 2 (29)
- Decreased appetite, any grade TEAE, patients n (%) (Arm III i.v., N = 7): 3 (43)
- Diarrhoea, any grade TEAE, patients n (%) (Arm III i.v., N = 7): 2 (29)
- Diarrhoea, grade 3 or 4 TEAE, patients n (%) (Arm III i.v., N = 7): 0
- Dyspnoea, any grade TEAE, patients n (%) (Arm III i.v., N = 7): 2 (29)
- Fatigue, any grade TEAE, patients n (%) (Arm III i.v., N = 7): 1 (14)
- Grade 3 or 4 AE, patients n (%) (Arm III i.v., N = 7): 3 (43)
- Headache, any grade TEAE, patients n (%) (Arm III i.v., N = 7): 0
- Hypertension, any grade TEAE, patients n (%) (Arm III i.v., N = 7): 3 (43)
- Hypertension, grade 3 or 4 TEAE, patients n (%) (Arm III i.v., N = 7): 2 (29)
- Hypokalaemia, any grade TEAE, patients n (%) (Arm III i.v., N = 7): 0
- Hypomagnesaemia, any grade TEAE, patients n (%) (Arm III i.v., N = 7): 0
- Nausea, any grade TEAE, patients n (%) (Arm III i.v., N = 7): 2 (29)
- Neutropenia, grade 3 or 4 TEAE, patients n (%) (Arm III i.v., N = 7): 0
- Thrombocytopenia, any grade TEAE, patients n (%) (Arm III i.v., N = 7): 0
- Urinary tract infection, any grade TEAE, patients n (%) (Arm III i.v., N = 7): 2 (29)
- Vomiting, any grade TEAE, patients n (%) (Arm III i.v., N = 7): 1 (14)
- Any grade AE, patients n (%) (Total, N = 58): 56 (97)
- Constipation, any grade TEAE, patients n (%) (Total, N = 58): 13 (22)
- Decreased appetite, any grade TEAE, patients n (%) (Total, N = 58): 20 (34)
- Diarrhoea, any grade TEAE, patients n (%) (Total, N = 58): 15 (26)
- Diarrhoea, grade 3 or 4 TEAE, patients n (%) (Total, N = 58): 2 (3)
- Dyspnoea, any grade TEAE, patients n (%) (Total, N = 58): 7 (12)
- Fatigue, any grade TEAE, patients n (%) (Total, N = 58): 28 (48)
- Grade 3 or 4 AE, patients n (%) (Total, N = 58): 32 (55)
- Headache, any grade TEAE, patients n (%) (Total, N = 58): 9 (16)
- Hypertension, any grade TEAE, patients n (%) (Total, N = 58): 20 (34)
- Hypertension, grade 3 or 4 TEAE, patients n (%) (Total, N = 58): 10 (17)
- Hypokalaemia, any grade TEAE, patients n (%) (Total, N = 58): 6 (10)
- Hypomagnesaemia, any grade TEAE, patients n (%) (Total, N = 58): 6 (10)
- Nausea, any grade TEAE, patients n (%) (Total, N = 58): 15 (26)
- Neutropenia, grade 3 or 4 TEAE, patients n (%) (Total, N = 58): 2 (3)
- Thrombocytopenia, any grade TEAE, patients n (%) (Total, N = 58): 8 (14)
- Urinary tract infection, any grade TEAE, patients n (%) (Total, N = 58): 9 (16)
- Vomiting, any grade TEAE, patients n (%) (Total, N = 58): 12 (21)
- Grade 3 or 4 TEAE diarrhoea, patients (all 58 patients): 3%
- Grade 3 or 4 TEAE hypertension, patients (all 58 patients): 17%
- Grade 3 or 4 TEAE neutropenia, patients (all 58 patients): 3%
- Patients with TEAEs (all 58 patients): 97%
- Patients with TEAEs considered possibly or probably related to ilorasertib (all 58 patients): 66%
- Patients with TEAEs that led to discontinuation (all 58 patients): 17%
- Patients with grade 3 or 4 TEAEs (all 58 patients): 55%
- Patients with treatment-emergent serious AEs (all 58 patients): 36%
- Patients with treatment-related grade 3 or 4 TEAEs (all 58 patients): 28%
- Serious AE fatigue, patients (all 58 patients): 3%
- Serious AE small intestinal obstruction, patients (all 58 patients): 7%
- TEAE constipation, patients (all 58 patients): 22%
- TEAE decreased appetite (anorexia), patients (all 58 patients): 34%
- TEAE diarrhoea, patients (all 58 patients): 26%
- TEAE fatigue, patients (all 58 patients): 48%
- TEAE hypertension, patients (all 58 patients): 34%
- TEAE nausea, patients (all 58 patients): 26%
- TEAE vomiting, patients (all 58 patients): 21%
- Treatment-related TEAE decreased appetite, patients (all 58 patients): 19%
- Treatment-related TEAE diarrhoea, patients (all 58 patients): 14%
- Treatment-related TEAE fatigue, patients (all 58 patients): 24%
- Treatment-related TEAE hypertension, patients (all 58 patients): 29%
- Treatment-related TEAE nausea, patients (all 58 patients): 17%
- Treatment-related TEAE thrombocytopenia, patients (all 58 patients): 14%
- Treatment-related TEAE vomiting, patients (all 58 patients): 10%
- Treatment-related grade 3 or 4 diarrhoea, patients (all 58 patients): 3%
- Treatment-related grade 3 or 4 hypertension, patients (all 58 patients): 14%
- Treatment-related grade 3 or 4 neutropenia, patients (all 58 patients): 3%
- Relatedness of deaths to ilorasertib (investigator) (in vivo): none of the deaths were considered related to ilorasertib
- Deaths resulting from TEAEs (one patient in Arm I, two in Arm II, within 30 days of discontinuing the study): three patients
